{
  "source": "patent US9376418B2",
  "about": "“Substituted pyridine spleen tyrosine kinase (SYK) inhibitors” (Merck Sharp & Dohme Corp., priority 2012, dated 2016)",
  "data": [
    {"biological_target": "T1, recombinant human GST-SYK (Homo sapiens, UniProt P43405)", "T1 construct": "purchased Carna Biosciences 08-176", "test": "Homogeneous Time-Resolved Fluorescence (HTRF) assay for the recombinant human Syk enzyme", "format": "biochemical", "conditions": "HTRF assay, recombinant human GST-SYK; IC50 given as class symbols; read-out: rhSYK Activity", "method_in_brief": "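Phosphorylation of a biotinylated Syk substrate peptide (250 nM) was run for 45 min at room temperature with 25 μM ATP and 5 mM Mg. It followed a 10-min preincubation of GST-hSYK ([…]) with compound in 15 mM Tris-HCl pH 7.5, 2 mM DTT. Product was detected by time-resolved fluorescence using a europium anti-phosphotyrosine antibody plus SA-APC in EDTA-containing quench buffer.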", "units": {"IC50": "µM"}, "values": [
      {"molecule": "Cc1cc(Nc2nccc(C(F)(F)F)n2)cc(-c2ccc(NC[C@H]3CC[C@H](C(=O)O)CC3)nc2)c1", "note": "[Example 7.144, trans-4-({[5-(3-methyl-5-{[4-(trifluoromethyl)pyrimidin-2-yl]amino}phenyl)pyridin-2-yl]amino}methyl)cyclohexanecarboxylic acid]", "IC50": "< 0.1"},
      {"molecule": "Cc1cc(Nc2nccc(C(F)(F)F)n2)cc(-c2ccc(N3CCN(CC(=O)O)CC3)nc2)c1", "note": "[Example 7.140, {4-[5-(3-methyl-5-{[4-(trifluoromethyl)pyrimidin-2-yl]amino}phenyl)pyridin-2-yl]piperazin-1-yl}acetic acid]", "IC50": "< 0.1"},
      {"molecule": "O=C(O)c1cccc(-c2cccc(Nc3nccc(C(F)(F)F)n3)c2)n1", "note": "[Example 2.12, 6-(3-{[4-(trifluoromethyl)pyrimidin-2-yl]amino}phenyl)pyridine-2-carboxylic acid]", "IC50": "0.1 to 1"},
      {"molecule": "Cc1cc(Nc2nccc(C(F)(F)F)n2)cc(-c2ccc(N[C@@H](CCS(C)(=O)=O)C(=O)O)nc2)c1", "note": "[Example 7.74, (2S)-4-(methylsulfonyl)-2-{[5-(3-methyl-5-{[4-(trifluoromethyl)pyrimidin-2-yl]amino}phenyl)pyridin-2-yl]amino}butanoic acid]", "IC50": "< 0.1"},
      {"molecule": "Cc1cc(Nc2nccc(C(F)(F)F)n2)cc(-c2ccnc(NCc3cncn3C)c2)c1", "note": "[Example 15.38, N-[3-methyl-5-(2-{[(1-methyl-1H-imidazol-5-yl)methyl]amino}pyridin-4-yl)phenyl]-4-(trifluoromethyl)pyrimidin-2-amine]", "IC50": "0.1 to 1"},
      {"molecule": "CNC(=O)CN(C)c1ccc(-c2cc(C)cc(Nc3nccc(C(F)(F)F)n3)c2)cn1", "note": "[Example 7.28, N,N~2~-dimethyl-N~2~-[5-(3-methyl-5-{[4-(trifluoromethyl)pyrimidin-2-yl]amino}phenyl)pyridin-2-yl]glycinamide]", "IC50": "< 0.1"},
      {"molecule": "Cc1cc(Nc2nccc(C(F)(F)F)n2)cc(-c2ccc(C(N)=O)nc2)c1", "note": "[Example 12.6, 5-(3-methyl-5-{[4-(trifluoromethyl)pyrimidin-2-yl]amino}phenyl)pyridine-2-carboxamide]", "IC50": "< 0.1"},
      {"molecule": "CCC[C@@H](Nc1ccc(-c2cc(C)cc(Nc3nccc(C(F)(F)F)n3)c2)cn1)C(=O)O", "note": "[Example 7.107, N-[5-(3-methyl-5-{[4-(trifluoromethyl)pyrimidin-2-yl]amino}phenyl)pyridin-2-yl]-D-norvaline]", "IC50": "< 0.1"},
      {"molecule": "Cc1cc(Nc2nccc(C(F)(F)F)n2)cc(-c2ccc(C(=O)NCc3cn(C)cn3)nc2)c1", "note": "[Example 16.17, N-[(1-methyl-1H-imidazol-4-yl)methyl]-5-(3-methyl-5-{[4-(trifluoromethyl)pyrimidin-2-yl]amino}phenyl)pyridine-2-carboxamide]", "IC50": "0.1 to 1"},
      {"molecule": "Cc1cc(Nc2nccc(C(F)(F)F)n2)cc(-c2ccc(C(=O)N(C)C(C3CC3)C3CC3)nc2)c1", "note": "[Example 16.36, N-(dicyclopropylmethyl)-N-methyl-5-(3-methyl-5-{[4-(trifluoromethyl)pyrimidin-2-yl]amino}phenyl)pyridine-2-carboxamide]", "IC50": "0.1 to 1"},
      {"molecule": "Cc1cc(Nc2nccc(C(F)(F)F)n2)cc(-c2ccc(NC3COC3)nc2)c1", "note": "[Example 7.47, N-{3-methyl-5-[6-(oxetan-3-ylamino)pyridin-3-yl]phenyl}-4-(trifluoromethyl)pyrimidin-2-amine]", "IC50": "< 0.1"},
      {"molecule": "Cc1cc(Nc2nccc(C(F)(F)F)n2)cc(-c2cccnc2F)c1", "note": "[Example 2.45, N-[3-(2-fluoropyridin-3-yl)-5-methylphenyl]-4-(trifluoromethyl)pyrimidin-2-amine]", "IC50": "< 0.1"},
      {"molecule": "Cc1cc(Nc2nccc(C(F)(F)F)n2)cc(-c2ccc(N3CCC[C@@H](C(=O)N4CCC[C@@H](C(=O)O)C4)C3)nc2)c1", "note": "[Example 7.149, (3R)-1-({(3R)-1-[5-(3-methyl-5-{[4-(trifluoromethyl)pyrimidin-2-yl]amino}phenyl)pyridin-2-yl]piperidin-3-yl}carbonyl)piperidine-3-carboxylic acid]", "IC50": "< 0.1"},
      {"molecule": "Cc1cc(Nc2nccc(C(F)(F)F)n2)cc(-c2ccc(C(=O)N3CCOC(CCO)C3)nc2)c1", "note": "(stereo not drawn) [Example 16.37, 2-(4-{[5-(3-methyl-5-{[4-(trifluoromethyl)pyrimidin-2-yl]amino}phenyl)pyridin-2-yl]carbonyl}morpholin-2-yl)ethanol]", "IC50": "< 0.1"},
      {"molecule": "CCOC(=O)CCc1ccnc(-c2cc(C)cc(Nc3nccc(C)n3)c2)c1", "note": "[Example 2.33, ethyl 3-(2-{3-methyl-5-[(4-methylpyrimidin-2-yl)amino]phenyl}pyridin-4-yl)propanoate]", "IC50": "0.1 to 1"},
      {"molecule": "Cc1cc(Nc2nccc(C(F)(F)F)n2)cc(-c2cncc(C(C)(O)C(F)(F)F)c2)c1", "note": "(stereo not drawn) [Example 9.81, 1,1,1-trifluoro-2-[5-(3-methyl-5-{[4-(trifluoromethyl)pyrimidin-2-yl]amino}phenyl)pyridin-3-yl]propan-2-ol]", "IC50": "< 0.1"},
      {"molecule": "Cc1cc(Nc2nccc(C(F)(F)F)n2)cc(-c2ccc(C(=O)N3CCN(CC(F)(F)F)CC3)nc2)c1", "note": "[Example 16.65, N-[3-methyl-5-(6-{[4-(2,2,2-trifluoroethyl)piperazin-1-yl]carbonyl}pyridin-3-yl)phenyl]-4-(trifluoromethyl)pyrimidin-2-amine]", "IC50": "0.1 to 1"},
      {"molecule": "Cc1cc(Nc2nccc(C(F)(F)F)n2)cc(-c2ccc(C3(O)CCCC(C(=O)O)C3)nc2)c1", "note": "(stereo not drawn) [Example 9.21, 3-hydroxy-3-[5-(3-methyl-5-{[4-(trifluoromethyl)pyrimidin-2-yl]amino}phenyl)pyridin-2-yl]cyclohexanecarboxylic acid]", "IC50": "< 0.1"},
      {"molecule": "Cc1cc(Nc2nccc(C(F)(F)F)n2)cc(-c2ccc(NCC(N)=O)nc2)c1", "note": "[Example 7.31, N~2~-[5-(3-methyl-5-{[4-(trifluoromethyl)pyrimidin-2-yl]amino}phenyl)pyridin-2-yl]glycinamide]", "IC50": "< 0.1"},
      {"molecule": "Cc1cc(Nc2nccc(C(F)(F)F)n2)cc(-c2ccnc(N3CCC(C(N)=O)CC3)c2)c1", "note": "[Example 15.46, 1-[4-(3-methyl-5-{[4-(trifluoromethyl)pyrimidin-2-yl]amino}phenyl)pyridin-2-yl]piperidine-4-carboxamide]", "IC50": "< 0.1"},
      {"molecule": "Cc1cc(Nc2ncc(Cl)c(C)n2)cc(-c2ccc(N[C@H]3CC[C@H](C(=O)O)CC3)nc2)c1", "note": "[Example 2.119, trans-4-[(5-{3-[(5-chloro-4-methylpyrimidin-2-yl)amino]-5-methylphenyl}pyridin-2-yl)amino]cyclohexanecarboxylic acid]", "IC50": "< 0.1"},
      {"molecule": "Cc1cc(Nc2nccc(C(F)(F)F)n2)cc(-c2cccnc2)c1", "note": "[Example 2.57, N-(3-methyl-5-pyridin-3-ylphenyl)-4-(trifluoromethyl)pyrimidin-2-amine]", "IC50": "< 0.1"},
      {"molecule": "Cc1cc(Nc2nccc(C(F)(F)F)n2)cc(-c2ccc(N3CC[C@H]3C(N)=O)nc2)c1", "note": "[Example 12.9, (2S)-1-[5-(3-methyl-5-{[4-(trifluoromethyl)pyrimidin-2-yl]amino}phenyl)pyridin-2-yl]azetidine-2-carboxamide]", "IC50": "< 0.1"},
      {"molecule": "COc1ccnc(Nc2cc(C)cc(-c3ccc(C(C)(O)[C@H]4CC[C@H](C(=O)O)CC4)nc3)c2)n1", "note": "(single isomer, unassigned) [Example 9.28, trans-4-[(1R or 1S)-1-hydroxy-1-(5-{3-[(4-methoxypyrimidin-2-yl)amino]-5-methylphenyl}pyridin-2-yl)ethyl]cyclohexanecarboxylic acid]", "IC50": "< 0.1"},
      {"molecule": "Cc1cc(Nc2nccc(C(F)(F)F)n2)cc(-c2ccnc(C(F)(F)F)c2)c1", "note": "[Example 2.123, N-{3-methyl-5-[2-(trifluoromethyl)pyridin-4-yl]phenyl}-4-(trifluoromethyl)pyrimidin-2-amine]", "IC50": "0.1 to 1"},
      {"molecule": "Cc1cc(Nc2nccc(C)n2)cc(-c2ccc([C@]3(O)CC[C@H](C(=O)O)CC3)nc2)c1", "note": "[Example 9.38, trans-4-hydroxy-4-(5-{3-methyl-5-[(4-methylpyrimidin-2-yl)amino]phenyl}pyridin-2-yl)cyclohexanecarboxylic acid]", "IC50": "< 0.1"},
      {"molecule": "CNC(=O)CNC(=O)c1ccc(-c2cc(C)cc(Nc3nccc(C(F)(F)F)n3)c2)cn1", "note": "[Example 16.63, N-[2-(methylamino)-2-oxoethyl]-5-(3-methyl-5-{[4-(trifluoromethyl)pyrimidin-2-yl]amino}phenyl)pyridine-2-carboxamide]", "IC50": "0.1 to 1"},
      {"molecule": "Cc1cc(Nc2nccc(C(F)(F)F)n2)cc(-c2cncc(C3(O)CCC(C(=O)O)C3)c2)c1", "note": "(stereo not drawn) [Example 9.67, 3-hydroxy-3-[5-(3-methyl-5-{[4-(trifluoromethyl)pyrimidin-2-yl]amino}phenyl)pyridin-3-yl]cyclopentanecarboxylic acid]", "IC50": "< 0.1"},
      {"molecule": "Cc1cc(Nc2nccc(C(F)(F)F)n2)cc(-c2ccc(NS(=O)(=O)CC(=O)O)nc2)c1", "note": "[Example 8.2, {[5-(3-Methyl-5-{[4-(trifluoromethyl)pyrimidin-2-yl]amino}phenyl)pyridin-2-yl]sulfamoyl}acetic acid]", "IC50": "< 0.1"},
      {"molecule": "Cc1cc(Nc2nccc(C(F)(F)F)n2)cc(-c2ccnc(NCC3CCC(=O)N3)c2)c1", "note": "(stereo not drawn) [Example 15.83, 5-({[4-(3-methyl-5-{[4-(trifluoromethyl)pyrimidin-2-yl]amino}phenyl)pyridin-2-yl]amino}methyl)pyrrolidin-2-one]", "IC50": "< 0.1"},
      {"molecule": "Cc1cc(Nc2nccc(C(F)(F)F)n2)cc(-c2ccc(C(=O)NC3CCNC3=O)nc2)c1", "note": "(stereo not drawn) [Example 16.26, 5-(3-methyl-5-{[4-(trifluoromethyl)pyrimidin-2-yl]amino}phenyl)-N-(2-oxopyrrolidin-3-yl)pyridine-2-carboxamide]", "IC50": "< 0.1"},
      {"molecule": "Cc1cc(Nc2nccc(C(F)(F)F)n2)cc(-c2ccc(C(=O)NC(C)CO)nc2)c1", "note": "(stereo not drawn) [Example 16.7, N-(2-hydroxy-1-methylethyl)-5-(3-methyl-5-{[4-(trifluoromethyl)pyrimidin-2-yl]amino}phenyl)pyridine-2-carboxamide]", "IC50": "< 0.1"},
      {"molecule": "Cc1cc(Nc2nccc(C3CC3)n2)cc(-c2cncc(CCC(=O)O)c2)c1", "note": "[Example 2.102, 3-(5-{3-[(4-cyclopropylpyrimidin-2-yl)amino]-5-methylphenyl}pyridin-3-yl)propanoic acid]", "IC50": "< 0.1"}
    ]}
  ]
}
